From patent US10765644B2, “Methods for the treatment of hepatitis C” (priority 2015, dated 2020) come the findings set out here.

pEC50: −log10 of the molar value.

In one data set the test system is HCV GT1B replicon. In words: HCV replicon assay (antiviral, luciferase / qRT-PCR endpoint). Type of data set: cell-based, hepatitis C virus. The procedure: Stable HCV replicons of different genotypes may be used for anti-HCV evaluation.
The HCV replicon antiviral evaluation assay examined the effects of compounds at six serial dilutions. Human interferon alpha-2b (rIFNα-2b) and/or Sofosbuvir were included in each run as a positive control compound.
(§1) Briefly, the replicon cells were plated at 5,000 cells/well into 96-well plates that were dedicated for the analysis of cell numbers (cytotoxicity) or antiviral activity. On the following day, samples were diluted with assay media and added to the appropriate wells. Cells were processed 72 hours later when the cells were still sub-confluent. For the luciferase endpoint assay, HCV replicon levels were assessed as replicon-derived Luc activity. The concentration of drug that reduced cell viability was assessed by the fluorometric CytoTox-1 cell proliferation assay (Promega), (expressed as cell numbers). For the qRT-PCR/TaqMan assay, total RNA was extracted from the replicon cells using RNeasy 96 kit (Qiagen) according to the manufacturer's protocol. Real-time RTPCR/TaqMan assays were performed to measure copy numbers of the replicon RNA and cellular ribosomal RNA. Where applicable EC50 (concentration inhibiting HCV replicon by 50%), EC90 (concentration inhibiting HCV replicon by 90%), CC50 (concentration decreasing cell viability by 50%), CC90 (concentration decreasing cell viability by 90%) and SI (selectivity indices: CC50/EC50 and CC90/EC90) values were derived.
On the technique in general: A replicon is a self-replicating genome or part of one, used to study replication in cells.

Data set [1] in a line: HCV replicon assay, cytotoxicity (CytoTox-1 cell proliferation assay). Format: cell-based. Conditions: HCV replicon cells, In vitro HCV replicon assay, post infection, read-out: CC50 (concentration decreasing cell viability by 50%). Here is the method:
as §1

Data set [2] has as its system cell culture-derived HCV (HCVcc). In words: microbe, parasite or virus in culture. Type of data set: cell-based, hepatitis C virus. The procedure: (§2) Huh7.5 cells were grown in Dulbecco's modified essential media (DMEM), 10% fetal bovine serum (FBS), 1% penicillin-streptomycin (pen-strep), 1% Non-essential amino acids (NEAA) in a 5% CO2 incubator at 37° C. Huh7.5 cells were seeded at 1×10^4 cells per well into 96-well plates according to Southern Research Institute standard format. Test articles were serially diluted with DMEM plus 5% FBS. The diluted compound in the amount of 50 μl was mixed with equal volume of cell culture-derived HCV (HCVcc), then applied to appropriate wells in the plate. Human interferon alpha-2b (rIFNα-2b) and/or Sofosbuvir were included as a positive control. After 72 hr incubation at 37° C., the cells were lysed for measurement of luciferase activity using Renilla Luciferase Assay System (Promega) according to manufacturer's instruction. The number of cells in each well were determined by CytoTox-1 reagent (Promega). Test articles were tested at 6 serial dilutions in triplicate to derive, if applicable, EC50 and EC90 (concentration inhibiting HCVcc infectivity by 50% and 90%, respectively), CC50 (concentration decreasing cell viability by 50%) and SI (selectivity index: CC50/EC50) values (Table 1).

Another data set can be described thus: in vitro. Type of data set: cell-based. Conditions: human. Here is the method:
as §2

Turning to `CC[C@H](c1ccc(O)cc1)[C@@H](CC)c1ccc(O)cc1` [Hexestrol, meso 3,4-bis(4-hydroxyphenyl)hexane], the “anti-Hepatitis C activity (in words)” value (in the data set on HCV GT1B replicon (HCV replicon assay); in data set [2] (Hepatitis C viral infectivity assay)) was “significant anti-Hepatitis C activity” throughout. The pEC50 with HCV GT1B replicon (Hepatitis C virus, GT1B, 72 h, read-out: EC50 (concentration inhibiting HCV replicon by 50%)) was 4.96; in data set [2] (Hepatitis C virus, Huh7.5, 72 h, read-out: EC50 (concentration inhibiting HCVcc infectivity by 50%)), 5.55. Moreover, the entries for the “Selectivity index (CC50/EC50)” value (in the data set with HCV GT1B replicon (In vitro HCV replicon assay); in data set [2] (In vitro HCVcc assay)) were 2.51 and 14.2, respectively. Also, the results for the CC50 at 72 h (in data set [1]; in “in vitro”) were 27.4 µM and 50.4 µM, respectively.
